Source: patent US20080230094A1, “METHOD TO INHIBIT GROWTH OF MICROORGANISMS IN AQUEOUS SYSTEMS AND ON SUBSTRATES USING PERSULFATE AND A BROMIDE” (Buckman Laboratories International, Inc., priority 2007, published 2008)

Tested on: Pseudomonas aeruginosa
Assay: Biocidal efficacy in pulp slurry inoculated with Pseudomonas aeruginosa (plate count, log reduction)
Type: cell-based
Conditions: 1000 ppm as pure compound in pulp slurry; 24 hr incubation
Experimental: A concentrated solution of active biocidal composition was prepared by mixing 44% (w/v) of aqueous ammonium persulfate with 40% (w/v) aqueous sodium bromide in equal volume. The final mixture contains 22% ammonium persulfate and 20% NaBr at pH 2.2. […] Four hours after mixing, the concentrated solution was diluted with water to contain 5% ammonium persulfate. This diluted solution (5%) was then added to 50 ml pulp slurry to give a biocidal concentration of 10 ppm (as ammonium persulfate) in pulp slurry. The pulp slurry was then inoculated with 3×10^6 cells/ml of Pseudomonas aeruginosa, incubated at room temperature for 24 hr, plated in nutrient agar. The colony forming units per milliliter (cfu/ml) was counted and compared with each individual component acting alone.
The pulp slurry contains white bleached dry pulp at 5 g/L; cationic starch at 10 bl/ton dry pulp; CaCO3 at 300 bl/ton dry pulp; ASA size at 3-4 lb/ton dry pulp; retention aids at 0.5-1.0 bl/ton dry pulp; defoamer at 250 g/ton dry pulp. The pulp slurry has a consistency of about 0.5 to 0.7%. The final pH of the pulp substrate after autoclave is about 8.0.

[Br-].[Na+] [NaBr, sodium bromide]
CFU/ml: 4.2 × 10^6 CFU/ml | Log Reduction: 0.00
